{"source": "paper PMC3359361", "about": "“Antimalarial Activity and Mechanisms of Action of Two Novel 4-Aminoquinolines against Chloroquine-Resistant Parasites” (PLoS ONE, 2012)", "key": {"hemozoin formation": {"test_system": "hemozoin formation", "assay": "Inhibition of hemozoin assay", "type": "biochemical", "settings": "dose-dependent; p<0.05 vs drug-free controls; two experiments in triplicate", "protocol": "The hemozoin inhibition assay was performed as described by Ncokazi et al., (2002) with some modifications. Briefly, 10.1 µL of the aminoquinoline derivatives at different concentrations (40-0.62 mg/mL) and 101.2 µL of the hematin stock solution (1.68 mM in 0.1 M NaOH) were combined in triplicate in a flat-bottomed 96-well plate. The solutions were further mixed and 58.7 µL of acetate solution (12.9 M, pH 5.0) then added to each well. After incubation at 60°C, 80 µL of 30% (v/v) pyridine solution in 20 mM HEPES, pH 7.5, were added at room temperature. The solids formed were resuspended and allowed to settle for 15 min at room temperature. Then, 38 µL of the supernatant were transferred to a new plate and diluted to 250 µL with a 30% (v/v) pyridine solution (20 mM HEPES, pH 7.5). The color reaction was read in a spectophometer at 405 nm and the results were expressed as the concentration of free heme in each well, which was calculated from the standard absorbance curve of a known hemin solution. CQ was used as a positive control and the cut off was determined by the amount of free heme in the drug-free control. Each compound was evaluated in two different experiments."}, "P. berghei, NK65 strain": {"test_system": "P. berghei, NK65 strain", "assay": "Suppressive parasite growth test in P. berghei infected mice", "type": "in vivo", "settings": "for Time of survival / Percent reduction of parasitemia, day 5 / Percent reduction of parasitemia, day 8 / Percent reduction of parasitemia, day 10: three consecutive days; for Percent reduction of parasitemia, day 5: day 5 post-infection; for Percent reduction of parasitemia, day 8: day 8 post-infection; for Percent reduction of parasitemia, day 10: day 10 post-infection", "protocol": "A suppressive parasite growth test was used with P. berghei, NK65 strain (originally received from the New York University Medical School) infected mice as described previously with some modifications. Briefly, adult Swiss outbred mice (20±2 g weigh) were inoculated with 1×10^5 red blood cells infected with P. berghei, by intraperitoneal route. The infected mice were maintained together for at least 2 h and then divided randomly into groups of 3–5 animals per cage, which were subsequently treated with 25 and 50 mg/kg of each compound diluted in DMSO 3% (v/v) given daily by oral gavage for three consecutive days. […] Blood smears from mouse tails were prepared on days 5, 8 and 10 post-infection and then methanol-fixed, stained with Giemsa and examined microscopically."}, "[1]": {"test_system": "monkey kidney cell line (BGM)", "assay": "Cytotoxicity by MTT assay, BGM cells", "type": "cell-based", "protocol": "(§1) The human hepatoma cell line (HepG2) was originally received from the New University of Lisbon, and the monkey kidney cell line (BGM) from the Federal University of Minas Gerais. […] For the in vitro tests, a confluent cell monolayer was trypsinized, washed with culture medium, distributed in a flat-bottomed 96-well plate (5×10^3 cells/well) and incubated for 18 h at 37°C to ensure cell adherence.\n(§2) The cytotoxicity was evaluated with the MTT assay, 3-(4,5-Dimethylthiazol-2-yl)-2,5-diphenyltetrazolium bromide. Briefly, the HepG2 and BGM cell lines were incubated with 20 µL of the compounds at different concentrations (1000-1 µg/mL) for 24 h in a 5% CO2 and air atmosphere at 37°C. For the MTT assay, which evaluates mitochondrial viability, 20 µL of MTT solution (5 mg/mL) were added and the plates were incubated for a further 3 h. After incubation, the supernatant was carefully removed from the wells, followed by the addition of 100 µL DMSO with thorough mixing.\n(§3) The neutral red assay was used to evaluate cell viability by the accumulation of dye in the viable cell lysosome. […] Cell viability was expressed as the percentage of control absorbance obtained in untreated cells after subtracting the absorbance of the appropriate background. Lastly, the minimum lethal dose for 50% of the cells (MLD50) was determined as previously described."}, "[2]": {"test_system": "P. falciparum 3D7 strain (CQ-sensitive)", "assay": "ELISA anti-HRPII assay, 3D7 strain", "type": "cell-based", "settings": "Plasmodium falciparum", "from_the_text": "(§4) Human erythrocytes (A^+) and serum blood group A+ were kindly donated by Center of Hemotherapy and Hemathology of Minas Gerais (HEMOMINAS). Immediately before the tests, ring stage-parasites were synchronized in sorbitol. Synchronized parasites were stained with orange green in pre-dried coverslips then immediately examined under a fluorescent microscope. The suspension was adjusted for parasitemia and hematocrit as described below for each test. The infected red blood cells were distributed in a 96-well microtiter plate (Corning, Santa Clara, CA, EUA) at 180 µL/well, in which 20 µL of the test drugs and controls were previously diluted at different concentrations (400-0.625 ng/mL) in 0.005% DMSO (v/v) (Sigma, USA).\n(§5) The [^3H]-hypoxanthine assay was performed at 1% parasitemia and 1% hematocrit and the level of isotope incorporation was read in a beta-counter (PerkinElmer, Waltham, MA, EUA). The anti-HRPII test was performed at 0.05% parasitemia and 1.5% hematocrit and the HRPII quantification was read at 450 nm in a spectrophotometer (SpectraMax340PC^384, Molecular Devices). […] Curve-fitting was performed using Origin 8.0 software (OriginLab Corporation, Northampton, MA, USA)."}, "[3]": {"test_system": "P. falciparum W2 clone (CQ-resistant and mefloquine-sensitive)", "assay": "ELISA anti-HRPII assay, W2 clone", "type": "cell-based", "settings": "Plasmodium falciparum", "from_the_text": "as §4, §5"}, "[4]": {"test_system": "human hepatoma cell line (HepG2)", "assay": "Cytotoxicity by MTT assay, HepG2 cells", "type": "cell-based", "protocol": "as §1, §2, §3"}, "[5]": {"test_system": "P. falciparum 3D7 strain (CQ-sensitive)", "assay": "3H hypoxanthine incorporation, 3D7 strain", "type": "cell-based", "settings": "Plasmodium falciparum", "from_the_text": "as §4, §5"}, "[6]": {"test_system": "P. falciparum W2 clone (CQ-resistant and mefloquine-sensitive)", "assay": "3H hypoxanthine incorporation, W2 clone", "type": "cell-based", "settings": "Plasmodium falciparum", "from_the_text": "as §4, §5"}}}
{"smiles": "NCCNCCNc1ccnc2cc(Cl)ccc12", "note": "[MAQ, N^1-(2-aminoethyl)-N^2-(7-chloroquinol-4-yl)ethane-1,2-diamine]", "values": [{"measurement": "Inhibition of hemozoin formation in vitro", "setting": "hemozoin formation", "value": "more evident with MAQ than with BAQ or CQ"}, {"measurement": "Activity in vivo (class)", "setting": "P. berghei, NK65 strain; 25 mg/kg", "value": "active"}, {"measurement": "Time of survival", "setting": "P. berghei, NK65 strain; 25 mg/kg daily, oral gavage", "value": "24 ± 1", "unit": "days"}, {"measurement": "Percent reduction of parasitemia, day 5", "setting": "P. berghei, NK65 strain; 25 mg/kg daily, oral gavage", "value": 91, "unit": "%"}, {"measurement": "Percent reduction of parasitemia, day 8", "setting": "P. berghei, NK65 strain; 25 mg/kg daily, oral gavage", "value": 61, "unit": "%"}, {"measurement": "Percent reduction of parasitemia, day 10", "setting": "P. berghei, NK65 strain; 25 mg/kg daily, oral gavage", "value": 70, "unit": "%"}, {"measurement": "Time of survival", "setting": "P. berghei, NK65 strain; 50 mg/kg daily, oral gavage", "value": "25 ± 1", "unit": "days"}, {"measurement": "Percent reduction of parasitemia, day 5", "setting": "P. berghei, NK65 strain; 50 mg/kg daily, oral gavage", "value": 95, "unit": "%"}, {"measurement": "Percent reduction of parasitemia, day 8", "setting": "P. berghei, NK65 strain; 50 mg/kg daily, oral gavage", "value": 71, "unit": "%"}, {"measurement": "Percent reduction of parasitemia, day 10", "setting": "P. berghei, NK65 strain; 50 mg/kg daily, oral gavage", "value": 76, "unit": "%"}, {"measurement": "Activity in vivo (class)", "setting": "P. berghei, NK65 strain; 50 mg/kg, days 5, 8 and 10 post-infection", "value": "active"}, {"measurement": "Selectivity index BGM", "setting": "[1]; MDL50/IC50", "value": 384}, {"measurement": "MDL50 BGM", "setting": "[1]; monkey, 24 h", "value": "100 ± 0.0", "unit": "µM"}, {"measurement": "IC50", "setting": "[2]; 3D7, dose that inhibits 50% of blood parasites growth, three or four experiments, read-out: IC50 HRPII, 3D7 (CQ sensitive)", "value": "26 ± 2", "unit": "nM"}, {"measurement": "IC50", "setting": "[3]; W2, dose that inhibits 50% of blood parasites growth, three or four experiments, read-out: IC50 HRPII, W2 (CQ resistant)", "value": "260 ± 20", "unit": "nM"}, {"measurement": "Selectivity index HepG2", "setting": "[4]; MDL50/IC50", "value": 1038}, {"measurement": "MDL50 HepG2", "setting": "[4]; human, 24 h", "value": "270 ± 10", "unit": "µM"}, {"measurement": "IC50", "setting": "[5]; 3D7, dose that inhibits 50% of blood parasites growth, three or four experiments, read-out: IC50 Hypoxanthine, 3D7 (CQ sensitive)", "value": "66 ± 5", "unit": "nM"}, {"measurement": "IC50", "setting": "[6]; W2, dose that inhibits 50% of blood parasites growth, three or four experiments, read-out: IC50 Hypoxanthine, W2 (CQ resistant)", "value": "320 ± 70", "unit": "nM"}]}
{"smiles": "CCN(CC)CCCC(C)Nc1ccnc2cc(Cl)ccc12", "note": "(stereo not shown) [CQ, Chloroquine]", "values": [{"measurement": "Time of survival", "setting": "P. berghei, NK65 strain; 20 mg/kg daily", "value": ">30", "unit": "days"}, {"measurement": "Percent reduction of parasitemia, day 5", "setting": "P. berghei, NK65 strain; 20 mg/kg daily", "value": 100, "unit": "%"}, {"measurement": "Percent reduction of parasitemia, day 8", "setting": "P. berghei, NK65 strain; 20 mg/kg daily", "value": 100, "unit": "%"}, {"measurement": "Percent reduction of parasitemia, day 10", "setting": "P. berghei, NK65 strain; 20 mg/kg daily", "value": 100, "unit": "%"}, {"measurement": "Suppression of parasitemia", "setting": "P. berghei, NK65 strain; CQ 20 mg/kg, day not given", "value": 100, "unit": "%"}, {"measurement": "IC50", "setting": "[2]; 3D7, read-out: IC50 HRPII, 3D7 (CQ sensitive)", "value": "6.9 ± 0.9", "unit": "nM"}, {"measurement": "IC50", "setting": "[3]; W2, read-out: IC50 HRPII, W2 (CQ resistant)", "value": 120, "unit": "nM"}, {"measurement": "IC50", "setting": "[5]; 3D7, read-out: IC50 Hypoxanthine, 3D7 (CQ sensitive)", "value": "7.4 ± 1.2", "unit": "nM"}, {"measurement": "IC50", "setting": "[6]; W2, read-out: IC50 Hypoxanthine, W2 (CQ resistant)", "value": 180, "unit": "nM"}]}
